Reference: US9232796B2, “Herbicidal compositions comprising 4-amino-3-chloro-5-fluoro-6-(4-chloro-2-fluoro-3-methoxyphenyl) pyridine-2-carboxylic acid or a derivative thereof and acetyl-CoA carboxylase (ACCase) inhibitors” (DOW AGROSCIENCES LLC, priority 2012, dated 2016)

Assays:
FIMMI = assay: Example II in-water applied, greenhouse, transplanted paddy rice weeds; format: in vivo, Fimbristylis miliacea (L.) Vahl
Experimental: Weed seeds or nutlets of the desired test plant species were planted in puddled soil (mud) prepared by mixing a shredded, non-sterilized mineral soil (50.5 percent silt, 25.5 percent clay, and 24 percent sand, with a pH of about 7.6 and an organic matter content of about 2.9 percent) and water at a 1:1 volumetric ratio. The prepared mud was dispensed in 365 mL aliquots into 16-ounce (oz.) non-perforated plastic pots with a surface area of 86.59 square centimeters (cm^2) leaving a headspace of 3 centimeters (cm) in each pot. Mud was allowed to dry overnight prior to planting or transplanting. Rice seeds were planted in Sun Gro MetroMix® 306 planting mixture, which typically has a pH of 6.0 to 6.8 and an organic matter content of about 30 percent, in plastic plug trays. Seedlings at the second or third leaf stage of growth were transplanted into 860 mL of mud contained in 32-oz. non-perforated plastic pots with a surface area of 86.59 cm^2 4 days prior to herbicide application. The paddy was created by filling the headspace of the pots with 2.5 to 3 cm of water. […] The plants were grown for 4-22 days in a greenhouse with an approximate 14 hr. photoperiod which was maintained at about 29° C. during the day and 26° C. during the night. Nutrients were added as Osmocote® (19:6:12, N:P:K+minor nutrients) at 2 g per 16-oz. pot and 4 g per 32-oz. pot. Water was added on a regular basis to maintain the paddy flood, and supplemental lighting was provided with overhead metal halide 1000-Watt lamps as necessary. The plants were employed for testing when they reached the first through fourth true leaf stage.
Treatments consisted of the acid or esters of 4-amino-3-chloro-5-fluoro-6-(4-chloro-2-fluoro-3-methoxy-phenyl)pyridine-2-carboxylic acid (compound A) each formulated as an SC (suspension concentrate) and various herbicidal components alone and in combination.
For formulated compounds, a measured amount was placed in an individual 100 or 200 mL glass vial and was dissolved in a volume of 1.25% (v/v) Agri-Dex® crop oil concentrate to obtain application solutions.
Applications were made by injecting with a pipetter appropriate amounts of the application solutions, individually and sequentially, into the aqueous layer of the paddy. Control plants were treated in the same manner with the solvent blank. Applications were made so that all treated plant material received the same concentrations of acetone and crop oil concentrate.
(§1) The treated plants and control plants were placed in a greenhouse as described above and water was added as needed to maintain a paddy flood. After approximately 3 weeks the condition of the test plants as compared with that of the untreated plants was determined visually and scored on a scale of 0 to 100 percent where 0 corresponds to no injury or growth inhibition and 100 corresponds to complete kill.
Colby's equation was used to determine the herbicidal effects expected from the mixtures (Colby, S. R. 1967. Calculation of the synergistic and antagonistic response of herbicide combinations. Weeds 15:20-22.).
The following equation was used to calculate the expected activity of mixtures containing two active ingredients, A and B: Expected=A+B−(A×B/100)

LEFCH = assay: Example I postemergence foliar-applied, greenhouse, direct seeded rice weeds; format: in vivo, Leptochloa chinensis (L.) Nees
From the text: Seeds or nutlets of the desired test plant species were planted in a soil matrix prepared by mixing a loam or sandy loam soil (e.g., 28.6 percent silt, 18.8 percent clay, and 52.6 percent sand, with a pH of about 5.8 and an organic matter content of about 1.8 percent) and calcareous grit in an 80 to 20 ratio. The soil matrix was contained in plastic pots with a volume of 1 quart and a surface area of 83.6 square centimeters (cm^2). When required to ensure good germination and healthy plants, a fungicide treatment and/or other chemical or physical treatment was applied. The plants were grown for 8-22 days in a greenhouse with an approximate 14 hr. photoperiod which was maintained at about 29° C. during the day and 26° C. during the night. Nutrients (Peters Excel® 15-5-15 5-Ca 2-Mg and iron chelate) were applied in the irrigation solution as needed and water was added on a regular basis. Supplemental lighting was provided with overhead metal halide 1000-Watt lamps as necessary. The plants were employed for testing when they reached the first through fourth true leaf stage.
Treatments consisted of the acid or esters of 4-amino-3-chloro-5-fluoro-6-(4-chloro-2-fluoro-3-methoxy-phenyl)pyridine-2-carboxylic acid (Compound A), each formulated as an SC (suspension concentrate), and various herbicidal components alone and in combination.
Other herbicidal components were applied on an acid equivalent (ae) or active ingredient (ai) basis and included acetyl coA carboxylase (ACCase)-inhibiting herbicides (cyclohexanedione and aryloxyphenoxypropionate chemical classes) cyhalofop-butyl formulated as Clincher® SF (285 gr ai/L EC), diclofop-methyl formulated as Hoelon® 3EC, fenoxaprop-p-ethyl+isoxadifen-ethyl formulated as RiceStar® HT (0.58 lb./gal EC), fenoxaprop-p-ethyl+mefenpyr diethyl formulated as Puma® IEC, metamifop formulated as Metamifop EC, haloxyfop-methyl formulated as Gallant Super®, fluazifop-p-butyl formulated as Fusilade® DX, quizalofop-p-ethyl formulated as Assure® II, profoxydim formulated as Aura® 20EC, clethodim applied as Intensity®, sethoxydim formulated as Poast®, and tralkoxydim formulated as Achieve®.
Treatment requirements were calculated based upon the rates being tested, the concentration of active ingredient or acid equivalent in the formulation, and a 12 mL application volume at a rate of 187 L/ha.
For treatments comprised of formulated compounds, measured amounts of compounds were placed individually in 25 mL glass vials and diluted in a volume of 1.25% (v/v) Agri-Dex® crop oil concentrated to obtain 12× stock solutions. […] Application solutions were prepared by adding an appropriate amount of each stock solution (e.g., 1 mL) and diluted to the appropriate final concentrations with the addition of 10 mL of an aqueous mixture of 1.25% (v/v) crop oil concentrate so that the final spray solutions contained 1.25+/−0.05% (v/v) crop oil concentrate.
All stock solutions and applications solutions were visually inspected for compound compatibility prior to application. Spray solutions were applied to the plant material with an overhead Mandel track sprayer equipped with a 8002E nozzles calibrated to deliver 187 L/ha over an application area of 0.503 m^2 at a spray height of 18 to 20 inches (46 to 50 cm) above average plant canopy height. Control plants were sprayed in the same manner with the solvent blank.
as §1, with “watered by sub-irrigation” for “water was added as needed”, “prevent wash-off of the test compounds.” for “maintain a paddy flood.”, “weeks,” for “weeks”, “kill. […]” for “kill.”

COc1c(Cl)ccc(-c2nc(C(=O)O)c(Cl)c(N)c2F)c1F [Compound A Acid, 4-amino-3-chloro-6-(4-chloro-2-fluoro-3-methoxyphenyl)-5-fluoropyridine-2-carboxylic acid]
Visual Weed Control (%) - 21 DAA FIMMI Obs (FIMMI; 8.75 gae/ha): 20%
Visual Weed Control (%) - 21 DAA FIMMI Obs (FIMMI; 35 gae/ha): 85%

C[C@@H](Oc1ccc(Oc2nc3ccc(Cl)cc3o2)cc1)C(=O)N(C)c1ccccc1F [Metamifop, (2R)-2-[4-[(6-chloro-2-benzoxazolyl)oxy]phenoxy]-N-(2-fluorophenyl)-N-methylpropanamide]
Visual Weed Control (%) - 21 DAA FIMMI Obs (FIMMI; 75 gai/ha): 0%
Visual Weed Control (%) - 21 DAA FIMMI Obs (FIMMI; 150 gai/ha): 0%

CCC/C(=N\OCC(C)Oc1ccc(Cl)cc1)C1=C(O)CC(C2CCCSC2)CC1=O (centres unmarked) [Profoxydim, 2-[1-[[2-(4-chlorophenoxy)propoxy]imino]butyl]-3-hydroxy-5-(tetrahydro-2H-thiopyran-3-yl)-2-cyclohexen-1-one, reference compound]
Visual Weed Control (%) - 20 DAA LEFCH Obs (LEFCH; 12.5 gai/ha): 0%
Visual Weed Control (%) - 20 DAA LEFCH Obs (LEFCH; 25 gai/ha): 40%

COc1c(Cl)ccc(-c2nc(C(=O)OCc3ccccc3)c(Cl)c(N)c2F)c1F [Compound A Benzyl Ester, benzyl ester of 4-amino-3-chloro-5-fluoro-6-(4-chloro-2-fluoro-3-methoxy-phenyl)pyridine-2-carboxylic acid]
Visual Weed Control (%) - 20 DAA LEFCH Obs (LEFCH; 4.38 gae/ha): 0%
Visual Weed Control (%) - 22 DAA LEFCH Obs (LEFCH; 8 gae/ha): 15%
Visual Weed Control (%) - 20 DAA LEFCH Obs (LEFCH; 8.75 gae/ha): 10%
Visual Weed Control (%) - 22 DAA LEFCH Obs (LEFCH; 16 gae/ha): 50%
Visual Weed Control (%) - 20 DAA LEFCH Obs (LEFCH; 17.5 gae/ha): 25%
